Assay results taken from ChEMBL document CHEMBL5053535, “Design, synthesis and biological evaluation of novel aminopyrazole- and 7-azaindole-based Nek1 inhibitors and their effects on zebrafish kidney development” (Bioorg Med Chem Lett, 2021).
Values after ≈ are worked out from the molar mass of the structure shown.

Tests used:
[1] = target: T1, Serine/threonine-protein kinase Nek1 (Homo sapiens) (UniProt Q96PY6); test: Inhibition of human NEK1 using myelin basic protein as substrate assessed as residual activity at 1 uM in presence of [gamma-33P]-ATP by radiometric hotspot kinase assay relative to control
T1 sequence (whole entry): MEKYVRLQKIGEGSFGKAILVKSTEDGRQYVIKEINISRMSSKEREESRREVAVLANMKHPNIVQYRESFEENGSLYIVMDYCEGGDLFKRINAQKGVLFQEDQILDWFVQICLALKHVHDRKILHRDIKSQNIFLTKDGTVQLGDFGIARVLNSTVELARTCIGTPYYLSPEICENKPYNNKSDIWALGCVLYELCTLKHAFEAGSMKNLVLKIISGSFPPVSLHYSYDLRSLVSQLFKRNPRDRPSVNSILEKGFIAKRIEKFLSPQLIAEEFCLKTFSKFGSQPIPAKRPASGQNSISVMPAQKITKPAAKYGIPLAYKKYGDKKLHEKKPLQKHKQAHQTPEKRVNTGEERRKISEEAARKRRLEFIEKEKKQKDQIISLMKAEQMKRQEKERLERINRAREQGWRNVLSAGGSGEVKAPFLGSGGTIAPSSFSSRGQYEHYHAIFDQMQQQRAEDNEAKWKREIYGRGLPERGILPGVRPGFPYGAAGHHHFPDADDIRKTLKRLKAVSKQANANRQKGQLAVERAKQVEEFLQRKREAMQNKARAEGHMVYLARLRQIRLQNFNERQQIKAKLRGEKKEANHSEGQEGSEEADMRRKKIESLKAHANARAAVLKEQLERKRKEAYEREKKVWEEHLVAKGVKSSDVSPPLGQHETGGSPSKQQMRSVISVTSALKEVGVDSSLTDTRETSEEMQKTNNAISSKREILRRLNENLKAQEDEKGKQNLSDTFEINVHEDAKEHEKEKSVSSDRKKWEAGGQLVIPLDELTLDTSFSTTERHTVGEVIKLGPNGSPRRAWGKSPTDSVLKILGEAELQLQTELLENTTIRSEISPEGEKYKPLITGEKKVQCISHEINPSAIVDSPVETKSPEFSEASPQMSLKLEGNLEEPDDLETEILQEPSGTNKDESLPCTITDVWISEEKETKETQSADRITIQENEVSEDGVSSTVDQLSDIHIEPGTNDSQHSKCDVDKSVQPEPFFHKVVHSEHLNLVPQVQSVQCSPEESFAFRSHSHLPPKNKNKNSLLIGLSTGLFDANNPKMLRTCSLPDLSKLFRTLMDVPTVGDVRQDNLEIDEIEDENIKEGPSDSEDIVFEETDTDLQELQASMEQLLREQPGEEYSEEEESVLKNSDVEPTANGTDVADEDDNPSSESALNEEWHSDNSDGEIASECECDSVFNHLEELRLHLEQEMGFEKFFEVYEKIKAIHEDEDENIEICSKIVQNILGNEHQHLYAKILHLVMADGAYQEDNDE

[2] = Solubility of the compound in E3 medium with 0.2% DMSO by DAD-HPLC based shake flask method; format: physicochemical
[3] = Stability of the compound in DMEM measured after 48 hrs by DAD-HPLC method; format: physicochemical; conditions: read-out: Stability
[4] = target: Cyclin-dependent kinase 2/cyclin E1 (Homo sapiens) (UniProt P24864+P24941); test: (§1) Inhibition of human recombinant full length C-terminal His6 tagged CDK2/ N-terminal GST-tagged Cyclin E expressed in baculovirus infected Sf21 insect cells using histone H1 as substrate assessed as residual activity at 1 uM pretreated for 20 mins followed by [33P]-ATP addition measured after 120 mins by radiometric hotspot kinase assay relative to control; conditions: time 140.0 min
[5] = target: Wee1-like protein kinase (Homo sapiens) (UniProt P30291); test: Inhibition of human recombinant full length WEE1 expressed in insect cells using MBP as substrate assessed as residual activity at 1 uM pretreated for 20 mins followed by [33P]-ATP addition measured after 120 mins by radiometric hotspot kinase assay relative to control; conditions: time 140.0 min
[6] = Solubility of the compound in DMEM with 1% DMSO by DAD-HPLC based shake flask method; format: physicochemical
[7] = target: T2, Serine/threonine-protein kinase Nek1 (Homo sapiens, UniProt Q96PY6); test: Inhibition of human NEK1 using myelin basic protein as substrate assessed as residual activity in presence of [gamma-33P]-ATP by radiometric hotspot kinase assay relative to control
T2 sequence (Q96PY6 whole entry): T1 sequence (whole entry)

[8] = target: T3, Serine/threonine-protein kinase Chk1 (Homo sapiens) (UniProt O14757); test: as §1, with “N-terminal His” for “C-terminal His6”, “CHK1” for “CDK2/ N-terminal GST-tagged Cyclin E”, “CHKtide” for “histone H1”; conditions: time 140.0 min
T3 sequence (whole entry): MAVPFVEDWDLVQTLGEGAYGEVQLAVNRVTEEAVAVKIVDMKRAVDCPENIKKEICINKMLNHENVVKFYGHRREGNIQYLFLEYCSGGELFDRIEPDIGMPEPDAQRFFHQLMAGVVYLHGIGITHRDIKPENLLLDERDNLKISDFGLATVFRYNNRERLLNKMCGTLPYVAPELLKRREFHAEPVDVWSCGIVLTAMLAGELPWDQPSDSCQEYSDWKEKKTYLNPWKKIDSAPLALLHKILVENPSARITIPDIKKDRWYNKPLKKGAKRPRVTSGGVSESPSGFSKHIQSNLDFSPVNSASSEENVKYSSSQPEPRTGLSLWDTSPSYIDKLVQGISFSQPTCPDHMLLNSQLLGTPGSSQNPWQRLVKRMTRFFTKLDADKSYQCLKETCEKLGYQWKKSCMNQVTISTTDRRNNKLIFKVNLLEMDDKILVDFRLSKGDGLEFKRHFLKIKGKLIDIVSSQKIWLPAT

[9] = target: Vascular endothelial growth factor receptor 2 (Homo sapiens) (UniProt P35968); test: Inhibition of human recombinant C-terminal His6 tagged VEGFR2 (789 to 1356 residues) expressed in baculovirus infected insect cells assessed as residual activity at 1 uM pretreated for 20 mins followed by [33P]-ATP addition measured after 120 mins by radiometric hotspot kinase assay relative to control; conditions: time 140.0 min
[10] = target: T4, Serine/threonine-protein kinase Nek5 (Homo sapiens) (UniProt Q6P3R8); test: Inhibition of human recombinant NEK5 assessed as residual activity at 1 uM pretreated for 20 mins followed by [33P]-ATP addition measured after 120 mins by radiometric hotspot kinase assay relative to control; conditions: time 140.0 min
T4 sequence (whole entry): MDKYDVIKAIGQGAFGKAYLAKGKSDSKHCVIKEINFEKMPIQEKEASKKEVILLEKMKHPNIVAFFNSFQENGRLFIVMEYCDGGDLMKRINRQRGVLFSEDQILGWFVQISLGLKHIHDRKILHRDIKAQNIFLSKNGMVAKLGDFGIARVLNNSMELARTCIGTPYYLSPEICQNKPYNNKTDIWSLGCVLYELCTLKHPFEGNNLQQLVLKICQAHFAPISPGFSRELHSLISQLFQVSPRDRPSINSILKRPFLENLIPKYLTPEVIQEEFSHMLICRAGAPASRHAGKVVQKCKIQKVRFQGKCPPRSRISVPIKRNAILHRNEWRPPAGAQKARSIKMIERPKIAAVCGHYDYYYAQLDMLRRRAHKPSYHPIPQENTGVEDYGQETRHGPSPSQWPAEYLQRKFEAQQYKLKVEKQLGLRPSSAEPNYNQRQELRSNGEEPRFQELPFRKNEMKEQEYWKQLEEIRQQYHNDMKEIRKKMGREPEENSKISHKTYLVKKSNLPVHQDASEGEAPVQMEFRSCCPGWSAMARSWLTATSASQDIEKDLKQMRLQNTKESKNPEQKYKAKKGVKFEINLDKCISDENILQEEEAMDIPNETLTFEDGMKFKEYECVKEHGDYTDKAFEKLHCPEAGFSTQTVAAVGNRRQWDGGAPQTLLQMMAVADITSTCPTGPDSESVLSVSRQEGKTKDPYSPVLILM

[11] = target: T1, Serine/threonine-protein kinase Nek1 (Homo sapiens); test: Inhibition of human NEK1 using myelin basic protein as substrate assessed as residual activity at 10 uM in presence of [gamma-33P]-ATP by radiometric hotspot kinase assay relative to control
[12] = Permeability across basolateral to apical side in human Caco-2 cells at pH 7.4 at 1 uM; format: ADME, cell-based; conditions: Caco-2, pH 7.4, read-out: permeability
[13] = Permeability across basolateral to apical side in human Caco-2 cells at pH 7.4 assessed as compound recovery at 1 uM; format: ADME, cell-based; conditions: Caco-2, pH 7.4, read-out: Drug recovery
[14] = Permeability across apical to basolateral side in human Caco-2 cells at pH 6.5 assessed as compound recovery at 1 uM; format: ADME, cell-based; conditions: Caco-2, pH 6.5, read-out: Drug recovery
[15] = Permeability across apical to basolateral side in human Caco-2 cells at pH 6.5 at 1 uM; format: ADME, cell-based; conditions: Caco-2, pH 6.5, read-out: permeability

Chain of Vascular endothelial growth factor receptor 2 (Homo sapiens) (P35968 whole entry, the tested form may be a part): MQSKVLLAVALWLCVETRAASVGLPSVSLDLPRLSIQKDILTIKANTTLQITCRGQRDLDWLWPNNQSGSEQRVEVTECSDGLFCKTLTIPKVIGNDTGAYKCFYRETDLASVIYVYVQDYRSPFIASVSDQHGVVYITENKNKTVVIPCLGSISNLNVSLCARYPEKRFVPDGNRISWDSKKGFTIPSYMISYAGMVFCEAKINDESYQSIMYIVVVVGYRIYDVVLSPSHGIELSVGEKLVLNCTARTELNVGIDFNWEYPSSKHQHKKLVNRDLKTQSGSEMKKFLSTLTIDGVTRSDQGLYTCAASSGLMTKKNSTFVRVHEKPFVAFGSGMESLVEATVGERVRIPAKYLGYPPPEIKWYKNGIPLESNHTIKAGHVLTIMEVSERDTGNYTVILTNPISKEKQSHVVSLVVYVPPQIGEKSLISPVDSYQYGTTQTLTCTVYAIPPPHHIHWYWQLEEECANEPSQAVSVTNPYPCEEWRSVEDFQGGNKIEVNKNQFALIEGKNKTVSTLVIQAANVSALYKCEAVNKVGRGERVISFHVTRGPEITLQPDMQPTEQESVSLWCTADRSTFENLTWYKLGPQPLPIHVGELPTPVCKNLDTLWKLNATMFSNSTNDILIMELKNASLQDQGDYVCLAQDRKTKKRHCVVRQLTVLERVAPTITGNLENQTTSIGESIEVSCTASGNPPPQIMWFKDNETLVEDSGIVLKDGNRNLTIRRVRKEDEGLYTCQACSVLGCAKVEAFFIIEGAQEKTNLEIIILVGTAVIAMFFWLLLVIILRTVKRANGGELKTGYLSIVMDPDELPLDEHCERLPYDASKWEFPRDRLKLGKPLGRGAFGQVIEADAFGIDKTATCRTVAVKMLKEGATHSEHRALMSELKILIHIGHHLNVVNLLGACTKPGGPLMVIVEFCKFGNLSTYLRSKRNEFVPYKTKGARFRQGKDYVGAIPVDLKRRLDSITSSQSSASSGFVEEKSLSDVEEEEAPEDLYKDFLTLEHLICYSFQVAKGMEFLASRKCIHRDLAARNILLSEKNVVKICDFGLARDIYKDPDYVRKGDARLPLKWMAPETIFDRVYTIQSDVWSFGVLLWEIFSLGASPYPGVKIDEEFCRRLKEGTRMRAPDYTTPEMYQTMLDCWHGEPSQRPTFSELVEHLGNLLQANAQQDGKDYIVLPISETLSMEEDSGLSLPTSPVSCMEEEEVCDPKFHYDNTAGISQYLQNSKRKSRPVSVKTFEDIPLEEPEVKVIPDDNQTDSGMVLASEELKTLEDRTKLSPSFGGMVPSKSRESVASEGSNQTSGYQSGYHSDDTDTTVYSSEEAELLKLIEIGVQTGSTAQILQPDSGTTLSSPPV
Chain of Wee1-like protein kinase (Homo sapiens) (P30291 whole entry, looked up): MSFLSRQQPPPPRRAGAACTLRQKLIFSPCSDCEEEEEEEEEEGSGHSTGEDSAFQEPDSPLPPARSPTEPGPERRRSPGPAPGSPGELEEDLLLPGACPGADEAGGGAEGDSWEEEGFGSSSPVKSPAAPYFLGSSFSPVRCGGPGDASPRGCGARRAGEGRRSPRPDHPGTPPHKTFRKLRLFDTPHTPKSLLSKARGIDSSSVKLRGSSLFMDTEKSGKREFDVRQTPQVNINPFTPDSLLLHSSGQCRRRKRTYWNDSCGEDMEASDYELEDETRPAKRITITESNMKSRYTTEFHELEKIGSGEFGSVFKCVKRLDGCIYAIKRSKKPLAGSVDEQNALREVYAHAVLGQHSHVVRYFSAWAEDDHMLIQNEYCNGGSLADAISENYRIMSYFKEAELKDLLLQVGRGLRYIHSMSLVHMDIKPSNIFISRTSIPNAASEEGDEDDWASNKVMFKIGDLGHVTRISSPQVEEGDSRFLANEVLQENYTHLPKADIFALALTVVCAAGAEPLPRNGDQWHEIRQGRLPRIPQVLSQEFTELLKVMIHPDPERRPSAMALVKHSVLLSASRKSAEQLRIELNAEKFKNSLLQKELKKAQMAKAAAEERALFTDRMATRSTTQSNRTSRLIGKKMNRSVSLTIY

An Activity [1] of 60.9% was found for `COC(=O)c1cccc(-c2cnc3[nH]cc(-c4ccccc4OC)c3c2)c1` in this work.

In the case of `N#Cc1cccc(-c2cnc3[nH]cc(Cl)c3c2)c1`, the Activity [1] is reported as > 100%.

An Activity [1] of 52.3% was found for `N#Cc1cccc(-c2cnc3[nH]cc(-c4ccccc4)c3c2)c1` in this work.

An Activity [1] of 98.4% was found for `Cc1cc(Nc2ccnc(N3CCN(C)CC3)n2)n[nH]1` in this work.

A solubility [2] of 7.2 µM (≈ 2.13 µg/mL), a remaining at 48 h [3] of 98% and an Activity [1] of 17.4% were found for `N#Cc1cccc(-c2cnc3[nH]cc(-c4cccnc4)c3c2)c1` in this work. It also gave an Activity [4] of 2.9%, an Activity [5] of 83.4% and a solubility [6] of 5.7 µM (≈ 1.69 µg/mL). For the same compound, the IC50 [7] was 0.129 µM, the Activity [8] was 69.6% and the Activity [9] was 35%. For the same compound, the Activity [10] was 27.9%.

An Activity [11] of 72.8% was found for `O=C(O)c1cccc(-c2cnc3[nH]ccc3c2)c1` in this work.

An Activity [1] of 95.1% was found for `Cc1cc(Nc2ccnc(NC3CC3)n2)n[nH]1` in this work.

An Activity [1] of 65.9% was found for `c1ccc(Nc2nccc(Nc3cc(-c4ccccc4)[nH]n3)n2)cc1` in this work.

An Activity [1] of 86.8% was found for `Cc1ccc(CNc2nccc(Nc3cc(C)[nH]n3)n2)cc1` in this work.

An IC50 [7] of 0.85 µM was found for `c1ccc(Nc2nccc(Nc3cc(C4CC4)[nH]n3)n2)cc1` in this work.

An Activity [1] of 61% was found for `COC(=O)c1cccc(-c2cnc3[nH]cc(-c4ccccc4C)c3c2)c1` in this work.

An Activity [1] of 28.5% was found for `COC(=O)c1cccc(-c2cnc3[nH]cc(-c4cccc([N+](=O)[O-])c4)c3c2)c1` in this work.

A solubility [2] of 4.6 µM (≈ 1.52 µg/mL), a remaining at 48 h [3] of 72% and an Activity [1] of 5.89% were found for `COC(=O)c1cccc(-c2cnc3[nH]cc(-c4cncnc4)c3c2)c1` in this work. For the same compound, the Activity [4] was 22.3%, the Activity [5] was 76.2% and the Papp B→A at 1 µM [12] was 0.21 ×10⁻⁶ cm/s. The recovery at 1 µM [13] was 41.1%, the solubility [6] was 28.6 µM (≈ 9.45 µg/mL) and the IC50 [7] was 0.0625 µM. It also gave a recovery at 1 µM [14] of 1.5%, an Activity [8] of 73.8% and an Activity [9] of 61.3%. The Papp A→B at 1 µM [15] was 0.37 ×10⁻⁶ cm/s and the Activity [10] was 23.3%.

An Activity [1] of 91.8% was found for `Cc1cc(Nc2ccnc(N(C)Cc3ccccc3)n2)n[nH]1` in this work.

An Activity [1] of 90.1% was found for `Cc1cc(Nc2ccnc(Nc3cccc4ccccc34)n2)n[nH]1` in this work.

An Activity [1] of 74.8% was found for `Cc1cc(Nc2ccnc(Nc3ccccc3)n2)n[nH]1` in this work.

An Activity [1] of 99.8% was found for `COCCNc1nccc(Nc2cc(C)[nH]n2)n1` in this work.

An Activity [1] of 74.3% was found for `N#Cc1cccc(-c2cnc3[nH]cc(-c4ccncc4)c3c2)c1` in this work.

An Activity [1] of 28.5% was found for `O=[N+]([O-])c1cccc(Nc2nccc(Nc3cc(C4CC4)[nH]n3)n2)c1` in this work.

An Activity [1] of 89.8% was found for `Cc1cc(Nc2ccnc(N(C)c3ccccc3)n2)n[nH]1` in this work.
